Assay results taken from ChEMBL document CHEMBL1201862, “PubChem BioAssay data set” (2004).
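Grown in 96-well plates, cells were treated for 48 hours with each compound at five concentrations. Insufficient inhibition: endpoint recorded as highest concentration tested. At the GI50, growth is halved.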 Calls of active or inactive are those of the source. No stated cut-off is given here; in the data, active = GI50 up to about 1.1 µM and inactive = higher.

How the values were obtained:
Assay in all cases: NCI anticancer screen, dose series, 48 h
MCF7 = test system: MCF7
K562 = test system: K562
MOLT-4 = test system: MOLT-4
NCI-H460 = test system: NCI-H460
PC-3 = test system: PC-3
SK-MEL-28 = test system: SK-MEL-28
UO-31 = test system: UO-31
MDA-MB-231 = test system: MDA-MB-231
SNB-75 = test system: SNB-75
RXF 393 = test system: RXF 393
Hs-578T = test system: Hs-578T
SK-MEL-5 = test system: SK-MEL-5
DU-145 = test system: DU-145
HCC 2998 = test system: HCC 2998
SF-539 = test system: SF-539
NCI/ADR-RES = test system: NCI/ADR-RES
SNB-19 = test system: SNB-19
CAKI-1 = test system: CAKI-1
SK-MEL-2 = test system: SK-MEL-2
HL-60 = test system: HL-60

Structure (SMILES) | GI50 (MCF7) | GI50 (K562) | GI50 (MOLT-4) | GI50 (NCI-H460) | GI50 (PC-3) | GI50 (SK-MEL-28) | GI50 (UO-31) | GI50 (MDA-MB-231) | GI50 (SNB-75) | GI50 (RXF 393) | GI50 (Hs-578T) | GI50 (SK-MEL-5) | GI50 (DU-145) | GI50 (HCC 2998) | GI50 (SF-539) | GI50 (NCI/ADR-RES) | GI50 (SNB-19) | GI50 (CAKI-1) | GI50 (SK-MEL-2) | GI50 (HL-60)
C#CCn1c(=O)c(C)cn(/C(=C/C(=O)OCC)C(=O)OCC)c1=O | 2.97 µM (inactive) | 2.84 µM (inactive) | 3.43 µM (inactive) | 1.95 µM (inactive) | 12.6 µM (inactive) | 4.9 µM (inactive) | 11.3 µM (inactive) | 15.3 µM (inactive) | 15 µM (inactive) | 0.569 µM (active) | 10.6 µM (inactive) | 11.7 µM (inactive) | 10.4 µM (inactive) | 17.8 µM (inactive) | 1.64 µM (inactive) | 3.91 µM (inactive) | 14.6 µM (inactive) | 1.66 µM (inactive) | 13.2 µM (inactive) | 3.61 µM (inactive)
Nc1ccc2c(SCc3ccc([N+](=O)[O-])cc3)c3ccccc3nc2c1 | 13.6 µM (inactive) | 3.54 µM (inactive) | 2.3 µM (inactive) | 21.7 µM (inactive) | 16 µM (inactive) | 15.6 µM (inactive) | 14 µM (inactive) | 25.5 µM (inactive) | 17.7 µM (inactive) | 19.4 µM (inactive) | 17.6 µM (inactive) | 15.2 µM (inactive) | 13.4 µM (inactive) | 21.5 µM (inactive) | 16.4 µM (inactive) | 18.2 µM (inactive) | 21.9 µM (inactive) | 13.3 µM (inactive) | 16.4 µM (inactive) | 1.31 µM (inactive)
CCOC(=O)CCc1cc(=O)oc2cc(O)cc(O)c12 | > 100 µM (inactive) | > 100 µM (inactive) | > 100 µM (inactive) | > 100 µM (inactive) | > 100 µM (inactive) | > 100 µM (inactive) | > 100 µM (inactive) | > 100 µM (inactive) | > 100 µM (inactive) | > 100 µM (inactive) | > 100 µM (inactive) | > 100 µM (inactive) | > 100 µM (inactive) | 52.7 µM (inactive) | > 100 µM (inactive) | > 100 µM (inactive) | > 100 µM (inactive) | > 100 µM (inactive) | > 100 µM (inactive) | > 100 µM (inactive)
Cc1ccc(NC(=O)CSC(N)=O)cc1C | 31 µM (inactive) | > 100 µM (inactive) | 30.8 µM (inactive) | > 100 µM (inactive) | > 100 µM (inactive) | > 100 µM (inactive) | > 100 µM (inactive) | > 100 µM (inactive) | > 100 µM (inactive) | > 100 µM (inactive) | > 100 µM (inactive) | > 100 µM (inactive) | > 100 µM (inactive) | > 100 µM (inactive) | 43.4 µM (inactive) | > 100 µM (inactive) | > 100 µM (inactive) | > 100 µM (inactive) | > 100 µM (inactive) | > 100 µM (inactive)
CCN(CC)c1ccc(/C=C/C2=NN(c3cccc(S(=O)(=O)O)c3)C3(C2)C(Cl)C(=O)N3c2nc3ccccc3s2)cc1 (stereo not given) | 6.7 µM (inactive) | 5.55 µM (inactive) | 3.04 µM (inactive) | 9.1 µM (inactive) | 8.28 µM (inactive) | 20.7 µM (inactive) | 1.72 µM (inactive) | 7.8 µM (inactive) | 11.1 µM (inactive) | 3.98 µM (inactive) | 14.4 µM (inactive) | 6.71 µM (inactive) | 12.6 µM (inactive) | 7.36 µM (inactive) | 3.32 µM (inactive) | 17.9 µM (inactive) | 12.5 µM (inactive) | 3.48 µM (inactive) | 12.5 µM (inactive) | 1.89 µM (inactive)
